Measurements: patent publication US20240182945A1, “PRODUCTS FOR REGULATION OF EUKARYOTIC AND MICROBIAL CELLS GROWTH” (priority 2021, published 2024)
Starred links: 1 amine or outer side, 2 acyl side, 3 side chain; linkers in the order of their positions; H or OH if unused. Positions of bridges follow the written chain, without caps; N, C: chain ends. Non-standard residues stand in square brackets, D forms with d. Residues, ends and D or L forms follow the SMILES beside them. *: point of attachment. hTyr(3S-OH,4S-OH,3'-OSO3H) = N[C@H](C(=O)O)[C@H](O)[C@@H](O)c1ccc(O)c(OS(=O)(=O)O)c1; pTerphenylCO(4''-OnC5H11) = CCCCCOc1ccc(-c2ccc(-c3ccc(C(=O)*)cc3)cc2)cc1; Orn(4R-OH,5R-OH) = O=C([C@H](C[C@@H](O)[C@@H](O)N[*:3])N[*:1])[*:2]; hTyr(3S-OH,4S-OH) = N[C@H](C(=O)O)[C@H](O)[C@@H](O)c1ccc(O)cc1; Pro(3S-OH,4S-Me) = C[C@H]1CN[C@H](C(=O)O)[C@H]1O; X1 = CCCCCOc1ccc(-c2cc(-c3ccc(C(=O)*)cc3)no2)cc1; Gln(3R-OH) = NC(=O)C[C@@H](O)[C@H](N)C(=O)O; Hyp = O=C(O)[C@@H]1C[C@@H](O)CN1

Tested on: C. albicans, non-albicans Candida spp. Aspergillus spp. in oral swabs from patients with oral candidiasis
Experiment: Signs of fungal growth on 12 well plate test system supplemented with antifungal antibiotics
Format: cell-based
Conditions: naked eye examination, samples resistant to the antibiotic
Experimental: Oral swabs (n=6) from patients with confirmed oral candidiasis caused by C. albicans, non-albicans Candida spp. Aspergillus spp., were dissolved with PBS and 0.1 uL were plated on 12 well plate test system filled with Mixed Medium 1 (see above), Mixed Medium 2 (Sabouraud agar+Potato Dextrose Agar+vitamins B12+B7) (MM2), Sabouraud agar (SA), Potato Dextrose Agar (PDA), Sabouraud's Heart Infusion (SABHI) agar. 11 wells were filled with media supplemented with antibiotics (taken at mean concentration of each antibiotic achieved in lungs at different timpoints post drug administration)—Nystatin, Amphotericin B, Clotrimazole, Fluconazole, Isavuconazole, Terbinafin, Posaconazole, Voriconazole, Anidulafungin, Caspofungin, Micafungin. One well was antibiotic free.
Plates was incubated at 30 C and the analysis of the presence/absence of microbial growth was monitored every 15 minutes from […] to 5 h, then hourly from 5 h to 8 h and then at 18 and 24 h post plating with a naked eye.
Three methods (algorithms) how to analyze fungal growth were used.
Method (Algorithm) #1. Lab technician, analyzed the appearance of fungal growth by comparing the signs of fungal growth in each well supplemented with antibiotic(s) at certain timepoint, with the signs of funal growth in the same well at previous time point(s).
Method (Algorithm)#2. Lab technician analyzed the appearance of fungal growth by comparing the signs of fungal growth in each well supplemented with antibiotic(s) with fungal growth in antibiotic-free control
Method (Algorithm) #3. Lab technician analyzed the absence of fungal growth in the wells in fixed time period of 3.5 h; 5 h and 24 h.

[1] = Method (Algorithm) #1, MM1 medium
[2] = Method (Algorithm) #1, MM2 medium
[3] = Method (Algorithm) #1, PDA medium
[4] = Method (Algorithm) #1, SA (Sabouraud agar)
[5] = Method (Algorithm) #1, SABHI medium
[6] = Method (Algorithm) #2, MM1 medium
[7] = Method (Algorithm) #2, MM2 medium
[8] = Method (Algorithm) #2, PDA medium
[9] = Method (Algorithm) #2, SA (Sabouraud agar)
[10] = Method (Algorithm) #2, SABHI medium

Row | SMILES | Mean hour at which fungal growth became visible on the wells supplemented with a certain antibiotic [1] [h] | Mean hour at which fungal growth became visible on the wells supplemented with a certain antibiotic [2] [h] | Mean hour at which fungal growth became visible on the wells supplemented with a certain antibiotic [3] [h] | Mean hour at which fungal growth became visible on the wells supplemented with a certain antibiotic [4] [h] | Mean hour at which fungal growth became visible on the wells supplemented with a certain antibiotic [5] [h] | Mean hour at which fungal growth became visible on the wells supplemented with a certain antibiotic [6] [h] | Mean hour at which fungal growth became visible on the wells supplemented with a certain antibiotic [7] [h] | Mean hour at which fungal growth became visible on the wells supplemented with a certain antibiotic [8] [h] | Mean hour at which fungal growth became visible on the wells supplemented with a certain antibiotic [9] [h] | Mean hour at which fungal growth became visible on the wells supplemented with a certain antibiotic [10] [h]
1 | C[C@@H]1[C@H](O)[C@@H](C)/C=C/C=C/C=C/C=C/C=C/C=C/C=C/[C@H](O[C@@H]2O[C@H](C)[C@@H](O)[C@H](N)[C@@H]2O)C[C@@H]2O[C@](O)(C[C@@H](O)C[C@@H](O)[C@H](O)CC[C@@H](O)C[C@@H](O)CC(=O)O[C@H]1C)C[C@H](O)[C@H]2C(=O)O [Amphotericin B] | 3 | 5 | 4.5 | 6.5 | 6 | 5 | 5 | 7.5 | 7 | 8
2 | CCCCCOc1ccc(-c2ccc(-c3ccc(C(=O)N[C@H]4C[C@@H](O)[C@@H](O)NC(=O)[C@@H]5[C@@H](O)[C@@H](C)CN5C(=O)[C@H]([C@@H](C)O)NC(=O)[C@H]([C@H](O)[C@@H](O)c5ccc(O)cc5)NC(=O)[C@@H]5C[C@@H](O)CN5C(=O)[C@H]([C@@H](C)O)NC4=O)cc3)cc2)cc1 [Anidulafungin] ({pTerphenylCO(4''-OnC5H11)}-[Orn(4R-OH,5R-OH)]T[Hyp][hTyr(3S-OH,4S-OH)]T[Pro(3S-OH,4S-Me)]; lactam 1-C) | 4 | 5 | 6.5 | 5.5 | 6.5 | 5.5 | 4.5 | 7.5 | 6.5 | 8.5
3 | CC[C@H](C)C[C@H](C)CCCCCCCCC(=O)N[C@H]1C[C@@H](O)[C@@H](NCCN)NC(=O)[C@@H]2[C@@H](O)CCN2C(=O)[C@H]([C@H](O)CCN)NC(=O)[C@H]([C@H](O)[C@@H](O)c2ccc(O)cc2)NC(=O)[C@@H]2C[C@@H](O)CN2C(=O)[C@H]([C@@H](C)O)NC1=O [Caspofungin] | 3.5 | 5 | 6 | 5.5 | 7 | 6 | 5.5 | 8 | 7.5 | 8.5
4 | Clc1ccccc1C(c1ccccc1)(c1ccccc1)n1ccnc1 [Clotrimazole] | 3.5 | 4.5 | 7.5 | 5 | 6.5 | 4.5 | 6.5 | 8.5 | 7.5 | 6.5
5 | OC(Cn1cncn1)(Cn1cncn1)c1ccc(F)cc1F [Fluconazole] | 4 | 4.5 | 5 | 6.5 | 7.5 | 5.5 | 5.5 | 6.5 | 7 | 8
6 | C[C@@H](c1nc(-c2ccc(C#N)cc2)cs1)[C@](O)(Cn1cncn1)c1cc(F)ccc1F [Isavuconazole] | 5 | 4.5 | 6 | 6.5 | 7 | 6 | 5.5 | 7.5 | 7.5 | 8.5
7 | CCCCCOc1ccc(-c2cc(-c3ccc(C(=O)N[C@H]4C[C@@H](O)[C@@H](O)NC(=O)[C@@H]5[C@@H](O)[C@@H](C)CN5C(=O)[C@H]([C@H](O)CC(N)=O)NC(=O)[C@H]([C@H](O)[C@@H](O)c5ccc(O)c(OS(=O)(=O)O)c5)NC(=O)[C@@H]5C[C@@H](O)CN5C(=O)[C@H]([C@@H](C)O)NC4=O)cc3)no2)cc1 [Micafungin] (X1-[Orn(4R-OH,5R-OH)]T[Hyp][hTyr(3S-OH,4S-OH,3'-OSO3H)][Gln(3R-OH)][Pro(3S-OH,4S-Me)]; lactam 1-C) | 4.5 | 5 | 6 | 6 | 5 | 4.5 | 5.5 | 7.5 | 8 | 6.5
